Measurements from patent EP0327492A1, “Herbicidally and plantgrowth regulatory active quinoline and pyrindine compounds” (CIBA-GEIGY AG, priority 1988, dated 1989).

Columns and labels:
Format in all cases: in vivo
Sorghum halep. [1] = assay: Post-emergent herbicidal action, contact herbicide (B.3); details: 500 bis 2000 [g/ha], 15 days after treatment
In short: (§1)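 Read-out is a visual 1-9 damage score taken 15 days after spraying, where 1 means the plant died and 9 means unaffected growth. Plants were treated at the 4- to 6-leaf stage with 2000-500 g active substance per hectare as an aqueous dispersion and kept at 24-26 °C and 45-60% humidity.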

Echinochloa crus galli [2] = assay: as above; details: 500 bis 2000 [g/ha], 15 days after treatment
In short: as §1

Avena fatua [3] = assay: as above; details: 500 bis 2000 [g/ha], 15 days after treatment
In short: as §1

Digitaria sang. [4] = assay: as above; details: 500 bis 2000 [g/ha], 15 days after treatment
In short: as §1

Solanum nigrum [5] = assay: as above; details: 500 bis 2000 [g/ha], 15 days after treatment
In short: as §1

Xanthium Sp. = assay: as above; details: 500 bis 2000 [g/ha], 15 days after treatment
In short: as §1

Abutilon [6] = assay: as above; details: 500 bis 2000 [g/ha], 15 days after treatment
In short: as §1

Bromus tectorum [7] = assay: as above; details: 500 bis 2000 [g/ha], 15 days after treatment
In short: as §1

Stellaria [8] = assay: as above; details: 500 bis 2000 [g/ha], 15 days after treatment
In short: as §1

Alopecurus myos. [9] = assay: as above; details: 500 bis 2000 [g/ha], 15 days after treatment
In short: as §1

Chenopodium Sp. [10] = assay: as above; details: 500 bis 2000 [g/ha], 15 days after treatment
In short: as §1

Lolium perenne [11] = assay: as above; details: 500 bis 2000 [g/ha], 15 days after treatment
In short: as §1

Veronica Sp. [12] = assay: as above; details: 500 bis 2000 [g/ha], 15 days after treatment
In short: as §1

Amaranthus ret. [13] = assay: as above; details: 500 bis 2000 [g/ha], 15 days after treatment
In short: as §1

Sinapis [14] = assay: as above; details: 500 bis 2000 [g/ha], 15 days after treatment
In short: as §1

Galium aparine [15] = assay: as above; details: 500 bis 2000 [g/ha], 15 days after treatment
In short: as §1

Chrysanthe. leuc. [16] = assay: as above; details: 500 bis 2000 [g/ha], 15 days after treatment
In short: as §1

Soja [17] = assay: Pre-emergent herbicidal action (B.2), crop tolerance; details: 500 bis 2000 [g/ha], evaluated after 3 weeks
Description: (§2) Im Gewächshaus wird unmittelbar nach der Einsaat der Versuchspflanzen in Saatschalen die Erdoberfläche mit einer wässrigen Dispersion der Wirkstoffe, erhalten aus einem 25 %igen Emulsionskonzentrat behandelt. Es werden Konzentrationen von 2000-500 g Wirksubstanz/Hektar angewendet. Die Saatschalen werden im Gewächshaus bei 22-25° C und 50-70 % relativer Luftfeuchtigkeit gehalten und der Versuch nach 3 Wochen ausgewertet und die Resultate nach folgender Notenskala ausgewertet. • 1 Pflanze hat nicht gekeimt oder ist eingegangen • 2-3 sehr starke Schäden • 4 starke Schäden • 5 mittlere Schäden, die Pflanzen sind verkümmert • 6 Schäden, die Pflanze kann regenerieren • 7-8 leichte Schäden • 9 normales Wachstum, wie das unbehandelter Pflanzen
(§3) Boniturnoten von 1 bis 4 (insbesondere von 1 bis 3) weisen auf eine gute bis sehr gute Herbizidwirkung hin. Boniturnoten von 6 bis 9 (insbesondere 7 bis 9) weisen auf eine gute Toleranz (insbesondere bei Kulturpflanzen) hin.

Sorghum halep. [18] = assay: Pre-emergent herbicidal action (B.2); details: 500 bis 2000 [g/ha], evaluated after 3 weeks
Description: as §2, §3

Echinochloa crus galli [19] = assay: Pre-emergent herbicidal action (B.2); details: 500 bis 2000 [g/ha], evaluated after 3 weeks
Description: as §2, §3

Avena fatua [20] = assay: Pre-emergent herbicidal action (B.2); details: 500 bis 2000 [g/ha], evaluated after 3 weeks
Description: as §2, §3

Digitaria sang. [21] = assay: Pre-emergent herbicidal action (B.2); details: 500 bis 2000 [g/ha], evaluated after 3 weeks
Description: as §2, §3

Solanum nigrum [22] = assay: Pre-emergent herbicidal action (B.2); details: 500 bis 2000 [g/ha], evaluated after 3 weeks
Description: as §2, §3

Abutilon [23] = assay: Pre-emergent herbicidal action (B.2); details: 500 bis 2000 [g/ha], evaluated after 3 weeks
Description: as §2, §3

Bromus tectorum [24] = assay: Pre-emergent herbicidal action (B.2); details: 500 bis 2000 [g/ha], evaluated after 3 weeks
Description: as §2, §3

Stellaria [25] = assay: Pre-emergent herbicidal action (B.2); details: 500 bis 2000 [g/ha], evaluated after 3 weeks
Description: as §2, §3

Alopecurus myos. [26] = assay: Pre-emergent herbicidal action (B.2); details: 500 bis 2000 [g/ha], evaluated after 3 weeks
Description: as §2, §3

Chenopodium Sp. [27] = assay: Pre-emergent herbicidal action (B.2); details: 500 bis 2000 [g/ha], evaluated after 3 weeks
Description: as §2, §3

Lolium perenne [28] = assay: Pre-emergent herbicidal action (B.2); details: 500 bis 2000 [g/ha], evaluated after 3 weeks
Description: as §2, §3

Ipomoea = assay: Pre-emergent herbicidal action (B.2); details: 500 bis 2000 [g/ha], evaluated after 3 weeks
Description: as §2, §3

Veronica Sp. [29] = assay: Pre-emergent herbicidal action (B.2); details: 500 bis 2000 [g/ha], evaluated after 3 weeks
Description: as §2, §3

Amaranthus ret. [30] = assay: Pre-emergent herbicidal action (B.2); details: 500 bis 2000 [g/ha], evaluated after 3 weeks
Description: as §2, §3

Sinapis [31] = assay: Pre-emergent herbicidal action (B.2); details: 500 bis 2000 [g/ha], evaluated after 3 weeks
Description: as §2, §3

Galium aparine [32] = assay: Pre-emergent herbicidal action (B.2); details: 500 bis 2000 [g/ha], evaluated after 3 weeks
Description: as §2, §3

Chrysanthe. leuc. [33] = assay: Pre-emergent herbicidal action (B.2); details: 500 bis 2000 [g/ha], evaluated after 3 weeks
Description: as §2, §3

Baumwolle = assay: Post-emergent herbicidal action (B.3), crop tolerance; details: 500 bis 2000 [g/ha], 15 days after treatment
Description: as §2, §3
(§4) Eine Anzahl Unkräuter, sowohl monokotyle wie dikotyle, werden nach dem Auflaufen (im 4- bis 6-Blattstadium) mit einer wässrigen Wirkstoffdispersion in einer Dosierung von 2000-500 g Wirksubstanz pro Hektar auf die Pflanzen gespritzt und diese bei 24°-26°C und 45-60 % relativer Luftfeuchtigkeit gehalten. 15 Tage nach der Behandlung wird der Versuch nach dem in Beispiel B.2. gegebenen Massstab bewertet.

Soja [34] = assay: as above; details: 500 bis 2000 [g/ha], 15 days after treatment
Description: as §2, §3, §4

In the case of CC1CCc2nc(C3=NC(=O)C(C)(C(C)C)N3)c(C(=O)O)cc2C1 (stereo not shown) [Verbindung 2.01, 2-(5-Isopropyl-5-methyl-1H-imidazol-4-on-2-yl)-6-methyl-5,6,7,8-tetrahydrochinolin-3-carbonsäure], the Herbizidwirkung (Sorghum halep. [1]) is reported as “gute bis sehr gute Herbizidwirkung (Boniturnoten von 1 bis 4 (insbesondere von 1 bis 3) weisen auf eine gute bis sehr gute Herbizidwirkung hin)”, the Herbizidwirkung (Echinochloa crus galli [2]) is reported as “gute bis sehr gute Herbizidwirkung (Boniturnoten von 1 bis 4 (insbesondere von 1 bis 3) weisen auf eine gute bis sehr gute Herbizidwirkung hin)” and the Herbizidwirkung (Avena fatua [3]) is reported as “gute bis sehr gute Herbizidwirkung (Boniturnoten von 1 bis 4 (insbesondere von 1 bis 3) weisen auf eine gute bis sehr gute Herbizidwirkung hin)”. For the same molecule, the Herbizidwirkung (Digitaria sang. [4]) was “gute bis sehr gute Herbizidwirkung (Boniturnoten von 1 bis 4 (insbesondere von 1 bis 3) weisen auf eine gute bis sehr gute Herbizidwirkung hin)”, the Herbizidwirkung (Solanum nigrum [5]) was “gute bis sehr gute Herbizidwirkung (Boniturnoten von 1 bis 4 (insbesondere von 1 bis 3) weisen auf eine gute bis sehr gute Herbizidwirkung hin)” and the Herbizidwirkung (Xanthium Sp.) was “gute bis sehr gute Herbizidwirkung (Boniturnoten von 1 bis 4 (insbesondere von 1 bis 3) weisen auf eine gute bis sehr gute Herbizidwirkung hin)”. For the same molecule, the Herbizidwirkung (Abutilon [6]) was “gute bis sehr gute Herbizidwirkung (Boniturnoten von 1 bis 4 (insbesondere von 1 bis 3) weisen auf eine gute bis sehr gute Herbizidwirkung hin)”, the Herbizidwirkung (Bromus tectorum [7]) was “gute bis sehr gute Herbizidwirkung (Boniturnoten von 1 bis 4 (insbesondere von 1 bis 3) weisen auf eine gute bis sehr gute Herbizidwirkung hin)” and the Herbizidwirkung (Stellaria [8]) was “gute bis sehr gute Herbizidwirkung (Boniturnoten von 1 bis 4 (insbesondere von 1 bis 3) weisen auf eine gute bis sehr gute Herbizidwirkung hin)”. For the same molecule, the Herbizidwirkung (Alopecurus myos. [9]) was “gute bis sehr gute Herbizidwirkung (Boniturnoten von 1 bis 4 (insbesondere von 1 bis 3) weisen auf eine gute bis sehr gute Herbizidwirkung hin)”, the Herbizidwirkung (Chenopodium Sp. [10]) was “gute bis sehr gute Herbizidwirkung (Boniturnoten von 1 bis 4 (insbesondere von 1 bis 3) weisen auf eine gute bis sehr gute Herbizidwirkung hin)” and the Herbizidwirkung (Lolium perenne [11]) was “gute bis sehr gute Herbizidwirkung (Boniturnoten von 1 bis 4 (insbesondere von 1 bis 3) weisen auf eine gute bis sehr gute Herbizidwirkung hin)”. For the same molecule, the Herbizidwirkung (Veronica Sp. [12]) was “gute bis sehr gute Herbizidwirkung (Boniturnoten von 1 bis 4 (insbesondere von 1 bis 3) weisen auf eine gute bis sehr gute Herbizidwirkung hin)”, the Herbizidwirkung (Amaranthus ret. [13]) was “gute bis sehr gute Herbizidwirkung (Boniturnoten von 1 bis 4 (insbesondere von 1 bis 3) weisen auf eine gute bis sehr gute Herbizidwirkung hin)” and the Herbizidwirkung (Sinapis [14]) was “gute bis sehr gute Herbizidwirkung (Boniturnoten von 1 bis 4 (insbesondere von 1 bis 3) weisen auf eine gute bis sehr gute Herbizidwirkung hin)”. The Herbizidwirkung (Galium aparine [15]) was “gute bis sehr gute Herbizidwirkung (Boniturnoten von 1 bis 4 (insbesondere von 1 bis 3) weisen auf eine gute bis sehr gute Herbizidwirkung hin)”, the Herbizidwirkung (Chrysanthe. leuc. [16]) was “gute bis sehr gute Herbizidwirkung (Boniturnoten von 1 bis 4 (insbesondere von 1 bis 3) weisen auf eine gute bis sehr gute Herbizidwirkung hin)” and the “Toleranz (im Wachstum beeinflusst)” value (Soja [17]) was “gute Toleranz (Boniturnoten von 6 bis 9 (insbesondere 7 bis 9) weisen auf eine gute Toleranz (insbesondere bei Kulturpflanzen) hin)”. For the same molecule, the Herbizidwirkung (Sorghum halep. [18]) was “gute bis sehr gute Herbizidwirkung (Boniturnoten von 1 bis 4 (insbesondere von 1 bis 3) weisen auf eine gute bis sehr gute Herbizidwirkung hin)”, the Herbizidwirkung (Echinochloa crus galli [19]) was “gute bis sehr gute Herbizidwirkung (Boniturnoten von 1 bis 4 (insbesondere von 1 bis 3) weisen auf eine gute bis sehr gute Herbizidwirkung hin)” and the Herbizidwirkung (Avena fatua [20]) was “gute bis sehr gute Herbizidwirkung (Boniturnoten von 1 bis 4 (insbesondere von 1 bis 3) weisen auf eine gute bis sehr gute Herbizidwirkung hin)”. For the same molecule, the Herbizidwirkung (Digitaria sang. [21]) was “gute bis sehr gute Herbizidwirkung (Boniturnoten von 1 bis 4 (insbesondere von 1 bis 3) weisen auf eine gute bis sehr gute Herbizidwirkung hin)”, the Herbizidwirkung (Solanum nigrum [22]) was “gute bis sehr gute Herbizidwirkung (Boniturnoten von 1 bis 4 (insbesondere von 1 bis 3) weisen auf eine gute bis sehr gute Herbizidwirkung hin)” and the Herbizidwirkung (Abutilon [23]) was “gute bis sehr gute Herbizidwirkung (Boniturnoten von 1 bis 4 (insbesondere von 1 bis 3) weisen auf eine gute bis sehr gute Herbizidwirkung hin)”. The Herbizidwirkung (Bromus tectorum [24]) was “gute bis sehr gute Herbizidwirkung (Boniturnoten von 1 bis 4 (insbesondere von 1 bis 3) weisen auf eine gute bis sehr gute Herbizidwirkung hin)”, the Herbizidwirkung (Stellaria [25]) was “gute bis sehr gute Herbizidwirkung (Boniturnoten von 1 bis 4 (insbesondere von 1 bis 3) weisen auf eine gute bis sehr gute Herbizidwirkung hin)” and the Herbizidwirkung (Alopecurus myos. [26]) was “gute bis sehr gute Herbizidwirkung (Boniturnoten von 1 bis 4 (insbesondere von 1 bis 3) weisen auf eine gute bis sehr gute Herbizidwirkung hin)”. The Herbizidwirkung (Chenopodium Sp. [27]) was “gute bis sehr gute Herbizidwirkung (Boniturnoten von 1 bis 4 (insbesondere von 1 bis 3) weisen auf eine gute bis sehr gute Herbizidwirkung hin)”, the Herbizidwirkung (Lolium perenne [28]) was “gute bis sehr gute Herbizidwirkung (Boniturnoten von 1 bis 4 (insbesondere von 1 bis 3) weisen auf eine gute bis sehr gute Herbizidwirkung hin)” and the Herbizidwirkung (Ipomoea) was “gute bis sehr gute Herbizidwirkung (Boniturnoten von 1 bis 4 (insbesondere von 1 bis 3) weisen auf eine gute bis sehr gute Herbizidwirkung hin)”. The Herbizidwirkung (Veronica Sp. [29]) was “gute bis sehr gute Herbizidwirkung (Boniturnoten von 1 bis 4 (insbesondere von 1 bis 3) weisen auf eine gute bis sehr gute Herbizidwirkung hin)”, the Herbizidwirkung (Amaranthus ret. [30]) was “gute bis sehr gute Herbizidwirkung (Boniturnoten von 1 bis 4 (insbesondere von 1 bis 3) weisen auf eine gute bis sehr gute Herbizidwirkung hin)” and the Herbizidwirkung (Sinapis [31]) was “gute bis sehr gute Herbizidwirkung (Boniturnoten von 1 bis 4 (insbesondere von 1 bis 3) weisen auf eine gute bis sehr gute Herbizidwirkung hin)”. The Herbizidwirkung (Galium aparine [32]) was “gute bis sehr gute Herbizidwirkung (Boniturnoten von 1 bis 4 (insbesondere von 1 bis 3) weisen auf eine gute bis sehr gute Herbizidwirkung hin)”, the Herbizidwirkung (Chrysanthe. leuc. [33]) was “gute bis sehr gute Herbizidwirkung (Boniturnoten von 1 bis 4 (insbesondere von 1 bis 3) weisen auf eine gute bis sehr gute Herbizidwirkung hin)” and the “Toleranz (im Wachstum beeinflusst)” value (Baumwolle) was “gute Toleranz (Boniturnoten von 6 bis 9 (insbesondere 7 bis 9) weisen auf eine gute Toleranz (insbesondere bei Kulturpflanzen) hin)”. For the same molecule, the “Toleranz (im Wachstum beeinflusst)” value (Soja [34]) was “gute Toleranz (Boniturnoten von 6 bis 9 (insbesondere 7 bis 9) weisen auf eine gute Toleranz (insbesondere bei Kulturpflanzen) hin)”.
